Data from ChEMBL document CHEMBL3739280, “12,17-Cyclojatrophane and Jatrophane Constituents of Euphorbia welwitschii” (J Nat Prod, 2015).

Assays:
[1] = Antiproliferative activity against human EPG85-257RDB cells after 5 days by SRB assay; type: functional, cell-based; settings: 120 h
[2] = Resistance index, ratio IC50 for human EPG85-257RDB cells to IC50 for human EPG85-257 cells; type: functional
[3] = Antiproliferative activity against human EPP85-181RN cells after 5 days by SRB assay; type: functional, cell-based; settings: 120 h
[4] = Resistance index, ratio IC50 for human EPP85-181RN cells to IC50 for human EPP85-181P cells; type: functional
[5] = Antiproliferative activity against human EPP85-181RDB cells after 5 days by SRB assay; type: functional, cell-based; settings: 120 h
[6] = Resistance index, ratio IC50 for human EPP85-181RDB cells to IC50 for human EPP85-181P cells; type: functional

Compound	IC50 [1]	Ratio IC50 [2]	IC50 [3]	Ratio IC50 [4]	IC50 [5]	Ratio IC50 [6]
C=C1[C@H](OC(=O)C(C)C)[C@@H](OC(=O)C(C)C)[C@@H](OC(=O)c2cccnc2)C(C)(C)[C@H](O)[C@H]2O[C@@]3(C[C@H](C)[C@H](OC(C)=O)[C@@H]3[C@H]1OC(C)=O)C(=O)[C@H]2C	17.2 µM	0.6				
C=C1[C@H](OC(=O)C(C)C)[C@@H](OC(=O)C(C)C)[C@@H](OC(=O)c2cccnc2)C(C)(C)[C@H]2O[C@@H]2[C@@H](C)C(=O)[C@@]2(O)C[C@H](C)[C@H](OC(C)=O)[C@@H]2[C@H]1OC(C)=O	3.6 µM	0.1	21.3 µM	0.7	18.2 µM	0.6
